Molecular target: Glycogen synthase kinase-3 beta (Homo sapiens, UniProt P49841)
Assay: Inhibition of human GSK3beta using YRRAAVPPSPSLSRHSSPHQ(pS)EDEEE as substrate in presence of gamma-33P-ATP

Glycogen synthase kinase-3 beta, sequence (P49841 whole entry): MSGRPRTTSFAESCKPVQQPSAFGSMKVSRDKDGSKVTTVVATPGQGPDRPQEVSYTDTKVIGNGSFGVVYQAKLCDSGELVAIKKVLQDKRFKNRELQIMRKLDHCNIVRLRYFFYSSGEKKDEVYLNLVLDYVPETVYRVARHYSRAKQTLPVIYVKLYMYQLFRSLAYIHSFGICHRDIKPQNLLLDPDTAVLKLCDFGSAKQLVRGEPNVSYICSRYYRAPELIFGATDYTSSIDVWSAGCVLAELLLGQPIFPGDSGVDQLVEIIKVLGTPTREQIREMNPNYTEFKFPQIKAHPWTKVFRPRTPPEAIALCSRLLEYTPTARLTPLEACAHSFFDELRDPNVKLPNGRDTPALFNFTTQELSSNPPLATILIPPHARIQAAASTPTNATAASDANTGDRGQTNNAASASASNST

Row | Structure (SMILES) | IC50 [µM]
1 | O=C(CNC(=O)c1cnc2[nH]cc(-c3ccccc3)c2c1)NCCc1c[nH]cn1 | 2.61
2 | O=C(/C=C/c1cnc2[nH]cc(-c3ccccc3)c2c1)NCCc1c[nH]cn1 | 0.049
3 | O=C(/C=C/c1cnc2[nH]cc(-c3ccccc3)c2c1)NCCc1cccnc1 | 0.032
4 | C[C@@H](NC(=O)/C=C/c1cnc2[nH]cc(-c3ccccc3)c2c1)[C@@H](O)c1ccccc1 | 0.18
5 | O=C(CNC(=O)c1cnc2[nH]cc(C(=O)c3ccccc3)c2c1)NCCc1c[nH]c2ccccc12 | 15.7
6 | O=C(/C=C/c1cnc2[nH]cc(-c3ccccc3)c2c1)N[C@@H](CO)Cc1ccccc1 | 0.752
7 | O=C(/C=C/c1cnc2[nH]cc(-c3ccccc3)c2c1)NCCc1ccccn1 | 0.019
8 | O=C(CNC(=O)c1cnc2[nH]ccc2c1)NCCc1c[nH]c2ccccc12 | > 50
9 | O=C(CNC(=O)c1ccc2[nH]cc(-c3ccccc3)c2c1)NCCc1c[nH]c2ccccc12 | > 50
10 | O=C(CNC(=O)c1cnc2[nH]c(-c3ccccc3)cc2c1)NCCc1c[nH]c2ccccc12 | > 50

— ChEMBL document CHEMBL3867471, “Identification of lead small molecule inhibitors of glycogen synthase kinase-3 beta using a fragment-linking strategy” (Bioorg Med Chem Lett, 2016)
